Where a name gives a salt, the structure may show the parent alone. Read-outs that look alike come from different tables or passages of the source.
Columns and labels:
[1] = molecular target: cortisol synthase (CYP11B1) (Macaca fascicularis, UniProt A0A2K5ULY1); assay: Inhibition of cortisol synthesis (cynomolgus adrenal mitochondria, cortisol by mass spectrometry); assay type: biochemical, cynomolgus monkey
Protocol: The aldosterone synthase and cortisol synthase inhibition assays employ cynomolgus adrenal gland mitochondria as the source of aldosterone synthase (CYP11B2) and cortisol synthase (CYP11B1). Mitochondria are prepared from frozen cynomolgus monkey adrenal glands according to Method A described in by J. D. McGarry et al. (Biochem. J., 1983, 214, 21-28), with a final resuspension in the AT buffer described in R. Yamaguchi et al. (Cell Death and Differentiation, 2007, 14, 616-624), frozen as aliquots in liquid nitrogen and stored at −80° C. until use. Activity of CYP11B2 and CYP11B1 in these preparations is defined as the amount of enzyme that generates 1 pmol of product in one hour under the conditions described. Dose dependent inhibition is quantified by the inclusion of compound at various concentrations. Maximum activity (100%) is defined by reactions containing NADPH, but without compound. Activities at each concentration are expressed as a percentage of the maximum activity (y-axis) and plotted against concentration of compound (x-axis) and the concentration corresponding to 50% activity (IC50) determined using the XLFit curve-fitting program using a 4-parameter logistic model. Assays are performed as for aldosterone synthase except for the use of 150 units of CYP11B1, 11-deoxycortisol as substrate and cortisol measured as product.

[2] = molecular target: T1, aldosterone synthase (CYP11B2) (Macaca fascicularis, UniProt A0A2K5UPL9); assay: Inhibition of aldosterone synthase (cynomolgus adrenal mitochondria, aldosterone by mass spectrometry); assay type: biochemical, cynomolgus monkey; settings: cynomolgus adrenal gland mitochondria, 2 μM corticosterone substrate, 90 minutes at 37° C.
T1 construct: cynomolgus adrenal gland mitochondria as the source of aldosterone synthase (CYP11B2); from tissue; host or cells: cynomolgus monkey adrenal gland mitochondria
T1 sequence (A0A2K5UPL9 1-503): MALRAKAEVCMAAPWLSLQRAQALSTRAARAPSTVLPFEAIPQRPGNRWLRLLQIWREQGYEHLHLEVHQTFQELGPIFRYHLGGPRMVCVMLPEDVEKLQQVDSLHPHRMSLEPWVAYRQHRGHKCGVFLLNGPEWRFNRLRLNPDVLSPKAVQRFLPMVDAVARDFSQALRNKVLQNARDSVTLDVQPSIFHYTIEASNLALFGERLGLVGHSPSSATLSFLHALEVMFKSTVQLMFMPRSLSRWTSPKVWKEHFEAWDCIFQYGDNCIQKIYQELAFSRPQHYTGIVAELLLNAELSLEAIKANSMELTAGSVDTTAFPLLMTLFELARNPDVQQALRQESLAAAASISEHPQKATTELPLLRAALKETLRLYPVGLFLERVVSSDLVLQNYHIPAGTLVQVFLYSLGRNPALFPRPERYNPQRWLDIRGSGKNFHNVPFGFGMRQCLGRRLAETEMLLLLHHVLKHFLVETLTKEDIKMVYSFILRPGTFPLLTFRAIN
Protocol: The aldosterone synthase and cortisol synthase inhibition assays employ cynomolgus adrenal gland mitochondria as the source of aldosterone synthase (CYP11B2) and cortisol synthase (CYP11B1). Mitochondria are prepared from frozen cynomolgus monkey adrenal glands according to Method A described in by J. D. McGarry et al. (Biochem. J., 1983, 214, 21-28), with a final resuspension in the AT buffer described in R. Yamaguchi et al. (Cell Death and Differentiation, 2007, 14, 616-624), frozen as aliquots in liquid nitrogen and stored at −80° C. until use. Activity of CYP11B2 and CYP11B1 in these preparations is defined as the amount of enzyme that generates 1 pmol of product in one hour under the conditions described.
Assays are performed in 96-well format in a final volume of 60 µL/well, containing 100 mM potassium phosphate, pH 7.4, 1% (v/v) DMSO, and additionally, 2 μM of corticosterone and 50 units of CYP11B2 activity. Reactions are started by the addition of NADPH to 1 mM and allowed to proceed for 90 minutes at 37° C. Reactions are terminated by the addition of 60 μL of MeCN containing an internal standard for mass spectrometry. One hundred microliters are then transferred to a glass filter plate and centrifuged at 570×g for 5 minutes and the filtrate is collected. Reaction product aldosterone is quantified by mass spectrometry. To determine the assay blank value (0% activity), NADPH is omitted from some reactions.
Dose dependent inhibition is quantified by the inclusion of compound at various concentrations. Maximum activity (100%) is defined by reactions containing NADPH, but without compound. Activities at each concentration are expressed as a percentage of the maximum activity (y-axis) and plotted against concentration of compound (x-axis) and the concentration corresponding to 50% activity (IC50) determined using the XLFit curve-fitting program using a 4-parameter logistic model.

[3] = cynomolgus adrenal gland mitochondria, 11-deoxycortisol as substrate, cortisol measured as product; read-out: CYP11B1 Inhibition IC50

Structure (SMILES)	IC50 [1, 3] [nM]	IC50 [2] [nM]	IC50 ([1]; read-out: CYP11B1 Inhibition IC50; cynomolgus adrenal gland mitochondria, 11-deoxycortisol as substrate, cortisol measured as product) [nM]
NC(=O)c1ccc(Cc2onc3c2C(=O)CC(CC2CC2)C3)cc1 (stereo not drawn) [Cpd 51, 4-(6-Cyclopropylmethyl-4-oxo-4,5,6,7-tetrahydro-benzo[c]isoxazol-3-ylmethyl)-benzamide]	3700	21	–
CC(C)C1CC(=O)c2c(noc2CC2CCN(C(=O)CO)CC2)C1 (stereo not drawn) [Cpd 19, 3-[1-(2-Hydroxy-acetyl)-piperidin-4-ylmethyl]-6-isopropyl-6,7-dihydro-5H-benzo[c]isoxazol-4-one]	9900	200	–
O=C(O)c1ccc(Cc2onc3c2C(=O)CC(Cc2ccccc2)C3)cc1 (stereo not drawn) [Cpd 42, 4-(6-Benzyl-4-oxo-4,5,6,7-tetrahydro-benzo[c]isoxazol-3-ylmethyl)-benzoic acid]	> 100000	180	–
N#Cc1ccc(Cc2onc3c2C(=O)CC(CC2CC2)C3)cc1 (stereo not drawn) [Cpd 30, 4-(6-Cyclopropylmethyl-4-oxo-4,5,6,7-tetrahydro-benzo[c]isoxazol-3-ylmethyl)-benzonitrile]	14000	74	–
CS(=O)(=O)CCCOc1ccc(Cc2onc3c2C(=O)CC(Cc2ccccc2)C3)cc1 (stereo not drawn) [Cpd 49, 6-Benzyl-3-[4-(3-methanesulfonyl-propoxy)-benzyl]-6,7-dihydro-5H-benzo[c]isoxazol-4-one]	1100	150	–
N#Cc1ccc(Cc2onc3c2C(=O)CC(Cc2ccccc2)C3)cc1 (stereo not drawn) [Cpd 28, 4-(6-Benzyl-4-oxo-4,5,6,7-tetrahydro-benzo[c]isoxazol-3-ylmethyl)-benzonitrile]	4900	65	–
CC(C)C1CC(=O)c2c(noc2CC2CCNCC2)C1 (stereo not drawn) [Cpd 14, 4-(6-Isopropyl-4-oxo-4,5,6,7-tetrahydro-benzo[c]isoxazol-3-ylmethyl)-piperidinium hydrochloride]	–	2400	> 30000
CN1CCN(C(=O)c2ccc(Cc3onc4c3C(=O)OC(C)(C)C4)cc2)CC1=O [Cpd 97, 6,6-Dimethyl-3-[4-(4-methyl-3-oxo-piperazine-1-carbonyl)-benzyl]-6,7-dihydro-pyrano[4,3-c]isoxazol-4-one]	11000	170	–
NC(=O)c1ccc(Cc2onc3c2C(=O)CC2(CCC2)C3)cc1 [Cpd 77, 4-(-6,6-spiro-cyclobutyl-4-oxo-4,5,6,7-tetrahydro-benzo[c]isoxazol-3-ylmethyl)-benzamide]	130	12	–
CC1(C)CC(=O)c2c(noc2Cc2ccc3c(c2)NC(=O)CO3)C1 [Cpd 35, 6-(6,6-Dimethyl-4-oxo-4,5,6,7-tetrahydro-benzo[c]isoxazol-3-ylmethyl)-4H-benzo[1,4]oxazin-3-one]	5200	160	–
CC1CC(=O)c2c(noc2Cc2ccc(C(N)=O)cc2)C1 (stereo not drawn) [Cpd 74, 4-(6-Methyl-4-oxo-4,5,6,7-tetrahydro-benzo[c]isoxazol-3-ylmethyl)-benzamide]	3000	82	–
O=C1CC2(CCC2)Cc2noc(Cc3ccccc3)c21 [Cpd 1, 6,6-spiro-cyclobutyl-3-benzyl-6,7-dihydro-5-H-benzo[c]isoxazole-4-one]	1100	7.2	–
CC(=O)N1CCC(Cc2onc3c2C(=O)CC2(CCC2)C3)CC1 [Cpd 16, 3-(1-Acetyl-piperidin-4-ylmethyl)-6,6-spiro-cyclobutyl-6,7-dihydro-5H-benzo[c]isoxazol-4-one]	3900	47	–
NC(=O)N1CCC(Cc2onc3c2C(=O)CC2(CCC2)C3)CC1 [Cpd 22, 4-(6,6-spiro-cyclobutyll-4-oxo-4,5,6,7-tetrahydro-benzo[c]isoxazol-3-ylmethyl)-piperidine-l-carboxylic acid amide]	3500	57	–

The next lines start with results.

IC50 [1, 3] [nM]	IC50 [2] [nM]	Structure (SMILES)	IC50 ([1]; read-out: CYP11B1 Inhibition IC50; cynomolgus adrenal gland mitochondria, 11-deoxycortisol as substrate, cortisol measured as product) [nM]
6700	42	CC1(C)CC(=O)c2c(noc2Cc2ccc(C(=O)N3CC[C@H](S(C)(=O)=O)C3)cc2)C1 [Cpd 53, 3-[4-((S)-3-Methanesulfonyl-pyrrolidine-l-carbonyl)-benzyl]-6,6-dimethyl-6,7-dihydro-5H-benzo[c]isoxazol-4-one]	–
2500	35	CC1(C)CC(=O)c2c(noc2Cc2ccc(OCCC(N)=O)cc2)C1 [Cpd 81, 3-[4-(6,6-Dimethyl-4-oxo-4,5,6,7-tetrahydro-benzo[c]isoxazol-3-ylmethyl)-phenoxy]-propionamide]	–
15000	100	CC1(C)CC(=O)c2c(noc2Cc2ccc(C(N)=O)cc2)C1 [Cpd 75, 4-(6,6-Dimethyl-4-oxo-4,5,6,7-tetrahydro-benzo[c]isoxazol-3-ylmethyl)-benzamide]	–
3700	84	CC1(C)CC(=O)c2c(noc2Cc2ccc(S(C)(=O)=O)cc2)C1 [Cpd 9, 3-(4-Methanesulfonyl-benzyl)-6,6-dimethyl-6,7-dihydro-5H-benzo[c]isoxazol-4-one]	–
3400	89	COCCNC(=O)c1ccc(Cc2onc3c2C(=O)CC(C)(C)C3)cc1 [Cpd 58, 4-(6,6-Dimethyl-4-oxo-4,5,6,7-tetrahydro-benzo[c]isoxazol-3-ylmethyl)-N-(2-methoxy-ethyl)-benzamide]	–
22000	190	CC1(C)CC(=O)c2c(noc2Cc2ccc(F)cc2)C1 [Cpd 13, 3-(4-Fluoro-benzyl)-6,6-dimethyl-6,7-dihydro-5H-benzo[c]isoxazol-4-one]	–
4100	92	CC1(C)CC(=O)c2c(noc2Cc2ccc(Br)cc2)C1 [Cpd 33, 3-(4-Bromo-benzyl)-6,6-dimethyl-6,7-dihydro-5H-benzo[c]isoxazol-4-one]	–
3300	24	CC1(C)CC(=O)c2c(noc2Cc2ccc(OCCCC(N)=O)cc2)C1 [Cpd 78]	–
4000	44	CN(C)C(=O)CCOc1ccc(Cc2onc3c2C(=O)CC(C)(C)C3)cc1 [Cpd 82, 3-[4-(6,6-Dimethyl-4-oxo-4,5,6,7-tetrahydro-benzo[c]isoxazol-3-ylmethyl)-phenoxy]-N,N-dimethyl-propionamide]	–
7800	23	CN(C)C(=O)CCCOc1ccc(Cc2onc3c2C(=O)CC(C)(C)C3)cc1 [Cpd 79]	–
11000	69	COCCN(C)C(=O)c1ccc(Cc2onc3c2C(=O)CC(C)(C)C3)cc1 [Cpd 56, 4-(6,6-Dimethyl-4-oxo-4,5,6,7-tetrahydro-benzo[c]isoxazol-3-ylmethyl)-N-(2-methoxy-ethyl)-N-methyl-benzamide]	–
13000	160	CC1(C)CC(=O)c2c(noc2Cc2ccc(C(=O)NCC3(O)CC3)cc2)C1 [Cpd 69, 4-(6,6-Dimethyl-4-oxo-4,5,6,7-tetrahydro-benzo[c]isoxazol-3-ylmethyl)-N-(1-hydroxy-cyclopropylmethyl)-benzamide]	–
5900	94	CC1(C)CC(=O)c2c(noc2Cc2ccc(C(=O)N3CCC[C@H](O)C3)cc2)C1 [Cpd 60, 3-[4-((S)-3-Hydroxy-piperidine-1-carbonyl)-benzyl]-6,6-dimethyl-6,7-dihydro-5H-benzo[c]isoxazol-4-one]	–

Source: patent publication US10131642B1, “Aldosterone synthase inhibitors” (Boehringer Ingelheim International GmbH, priority 2015, dated 2018)
